{"source": "patent US20140329766A1", "about": "“Prophylactic Compositions for Management of Microbial Infections in Patients with Brain Injury” (UTI LIMITED PARTNERSHIP, priority 2011, published 2014)", "key": {"hepatic iNKT cells": {"tested_on": "hepatic iNKT cells", "test": "Spinning disk confocal intravital microscopy of the liver: crawling behaviour of GFP+ (iNKT) cells", "assay_type": "in vivo, mice", "details": "Cxcr6gfp/+ mice without MCAO (FIGS. 31A, 31B)", "procedure": "Murine liver intravital microscopy was performed as taught by Wong et al. (1997, A minimal role for selectins in the recruitment of leukocytes into the inflamed liver microvasculature. J. Clin. Invest. 99: 2782). Briefly, the tail vein of the anesthetized mice was cannulated to administer fluorescently labeled antibodies and/or additional anesthetic as required. Body temperature was maintained at 37° C. using an infrared heat lamp. Mice were placed in a right lateral position on an adjustable microscope stage. A lateral abdominal incision along the costal margin to the midaxillary line was made to exteriorize the liver, and all exposed tissues were moistened with saline-soaked gauze to prevent dehydration.\nCells were tracked using ImageJ software version 1.45 (NIH at http://rsb.info.nih.gov/ij/). Time-lapse videos exported from Volocity were imported as .mov file, and then converted to 8-bit grayscale. Fluorescent cells were adjusted using threshold control, and noise particles less than 2.0 pixels were removed by filter. Movement of cells was measured using manual tracking, and was calculated for each track using ImageJ output spreadsheets. The cell velocity was expressed in distance (μm) per time (min). 30-40 tracks from 10 mins videos of each animal in each experimental group were analyzed.\nExcised livers were prepared for in vivo microscopic observation. Briefly, the liver was placed on the pedestal of an inverted microscope and the liver surface was then covered with a small piece of saline-soaked KimWipe to hold the organ in position. The liver microvasculature was visualized using a spinning-disk confocal microscopy and images were acquired with an Olympus IX81 inverted microscope using a ×10/0.40 UplanFL N objective. The microscope was equipped with a confocal light path (WaveFx, Quorum, Guelph, ON, CA) based on a modified Yokogawa CSU-10 head (Yokogawa Electric Corporation, Tokyo, Japan). Cxcr6^gfp/+ mice were used to visualize hepatic iNKT cells. Laser excitation wavelengths (Cobolt, Stockholm, Sweden) were used in rapid succession and visualized with the appropriate long-pass filters (Semrock, Rochester, N.Y.). Typical exposure time for each excitation wavelength was 300 milli-seconds. A 512×512 pixel back-thinned electron-multiplying charge-coupled device camera (C9100-13, Hamamatsu, Bridgewater, N.J.) was used for fluorescence detection. Volocity Acquisition software (Improvision) was used to drive the confocal microscope. […] Behaviors of iNKT cells in the hepatic microvasculature were assessed.\nWildtype mice underwent the MCAO procedure as previously described in Example 1. […] The crawling behaviours of crawling GFP+ cells in livers from sham-operated control mice and post-ischemic mice were observed and quantified using the methods disclosed in Example 2."}, "[1]": {"test": "Alanine transaminase (ALT) activity assay in peripheral blood", "assay_type": "in vivo", "details": "post-ischemic mice after the single dose of α-GalCer (FIG. 45B)", "procedure": "Separate groups of control sham-operated mice received a single-dose administration of the α-GalCer compositions following the procedures, both as outlined in Example 7 (one composition/one group of four mice). Also, separate groups of post-ischemic mice received a single-dose administration of the α-GalCer compositions about 2 h after the MCAO events, following the procedures as outlined in Example 7 (one composition/one group of four mice). All animals were euthenized 24 h after MCAO events, and their peripheral blood was harvested. The levels of alanine transaminase (ALT) in the samples were determined with an ALT activity assay following the manufacturer's instructions to determine the rates of oxidation of NADH to NAD^+."}}}
{"compound": "CCCCCCCCCCCCCCCCCCCCCCCCCCC(=O)N[C@@H](COC1OC(CO)C(O)C(O)C1O)[C@H](O)[C@H](O)CCCCCCCCCCCCCC", "note": "(stereo partly drawn) [α-GalCer, α-galactosylceramide]", "values": [{"measurement": "crawling behaviour of liver iNKT cells after administration of the activator", "setting": "hepatic iNKT cells", "value": "cessation of iNKTcells"}, {"measurement": "liver enzyme (ALT) levels within the blood", "setting": "[1]", "value": "no significant difference"}]}
